Among the data in patent US7625948B2, “Ester compound and medicinal use thereof” (Japan Tobacco Inc., priority 2002, dated 2009) are IC50 values, retold here.

The experiment relates to HepG2 cells. As to the kind of experiment: Test Example 2: inhibition of apolipoprotein B secretion from HepG2 cells, ELISA (also used for metabolites in Test Example 8). It is filed as cell-based. The note with it: Homo sapiens, 24 hours, apo B in supernatant by ELISA, read-out: Test Example 2 Inhibition of apo B secretion IC50. As for the experimental part: Inhibition of Apolipoprotein B Secretion from HepG2 Cells
HepG2 cells were suspended in Dulbecco's Modified Eagle's Medium (DMEM) (containing 10% fetal bovine serum, 100 units/mL penicillin and 100 μg/mL streptomycin), and placed on a 96-well plate (4×10^4 cells/well), then incubated for 24 hours. After removal of the medium, DMEM was replaced by a medium containing a sample dissolved in DMSO or a medium containing DMSO (concentration of DMSO: 0.5%) and incubation was further performed for 24 hours, after which the supernatant was recovered, and concentration of apo B in the supernatant was assayed by Enzyme-Linked Immunosorbent Assay (ELISA)
ELISA was carried out as follows. Anti-human apo B monoclonal antibody (0.5 μg/well) diluted with a solution of sodium carbonate in sodium bicarbonate buffer (50 mL, pH 9.6) was placed in a 96-well plate for ELISA, and allowed to stand at room temperature for 15 hours. After washing the plate, a blocking solution (250 μL/well) was placed in the well, and allowed to stand at room temperature for 1.5 hours. After washing the plate, a standard and a sample (100 μL/well) were placed in the well and allowed to stand at room temperature for one hour. The standard was prepared by adjusting the concentration of the purified human apo B with the DMEM to 0 to 1000 ng/mL. After washing the plate, an anti-human apo B polyclonal antibody labeled with a horse radish peroxidase which was diluted in 1:1000 with DEME (100 μL/well), and allowed to stand at room temperature for one hour. After washing the plate, 2,2-azinobis(3-ethylbenzothiazoline-6-sulfonic acid) solution (100 μL/well) was placed in the well, and allowed to stand at room temperature for one hour. The reaction was stopped by addition of 2% oxalic acid (100 μL/well), and absorbency at 405 nm was measured. Concentration of apo B in the sample was calculated on the basis of a standard curve of the standard. Inhibition rate (%) was calculated from the assayed values in accordance with the following equation.
Inhibition rate (%)=100×(1 minus (concentration of apo B in sample group/concentration of apo B in DMSO group).
Based on the above equation, 50% inhibition concentration (IC50) was determined.
Inhibitory Activity on MTP and apo B Secretion Inhibition by Metabolites
In a similar manner to Test Examples 1 and 2, the activity of metabolites was assayed.
A general note: An ELISA detects its analyte on a solid surface through an enzyme-linked reagent.
Consider `CN(C)C(=O)c1cc(CC(=O)OCC(CO)(CO)c2ccccc2)ccc1NC(=O)c1ccccc1-c1ccc(C(F)(F)F)cc1` [Example 2-103], for which the IC50 (in general, the concentration at which inhibition is half-maximal) turned out to be 42.6 nM.

For `CC(=O)OCC(COC(C)=O)(COC(=O)Cc1ccc(NC(=O)c2ccccc2-c2ccc(C(F)(F)F)cc2)c(C(=O)N(C)C)c1)c1ccccc1` [Example 2-104], the IC50 is 3.58 nM.

As for `CCOC(=O)C(COC(=O)Cc1ccc(NC(=O)c2ccccc2-c2ccc(C(F)(F)F)cc2)c(C(=O)N(C)C)c1)(C(=O)OCC)c1cccs1` [Example 2-105], the IC50 amounted to 0.2 nM.

Regarding `CCOC(=O)C(COC(=O)Cc1ccc(NC(=O)c2ccccc2-c2ccc(C(F)(F)F)cc2)c(C(=O)N(C)C)c1)(C(=O)OCC)c1ccsc1` [Example 2-106], the half-inhibitory concentration (IC50) turned out to be 0.44 nM.

With `CCOC(=O)C(COC(=O)Cc1cc(C(=O)N(C)C)c(NC(=O)c2ccccc2-c2ccc(C(F)(F)F)cc2)cn1)(C(=O)OCC)c1ccccc1` [Example 2-107], the IC50 came to 50 nM.

As to `CCOC(=O)C(COC(=O)Cc1ccc(NC(=O)c2ccccc2-c2ccc(C(F)(F)F)cc2)c(C(=O)N(C)C)c1)(C(=O)OCC)c1sccc1C` [Example 2-108], the IC50 amounted to 0.82 nM.

With `CCOC(=O)C(COC(=O)Cc1ccc(NC(=O)c2ccccc2-c2ccc(C(F)(F)F)cc2)c(C(=O)N(C)C)c1)(C(=O)OCC)c1ccc(C)s1` [Example 2-109], the IC50 stood at 0.93 nM.

As for `CCOC(=O)C(COC(=O)Cc1ccc(NC(=O)c2ccccc2-c2ccc(C(F)(F)F)cc2)c(C(=O)N(C)C)c1)(C(=O)OCC)c1nccs1` [Example 2-110], the IC50 was 0.65 nM.

Turning to `CCCC(COC(=O)Cc1ccc(NC(=O)c2ccccc2-c2ccc(C(F)(F)F)cc2)c(C(=O)N(C)C)c1)(C(=O)OCC)C(=O)OCC` [Example 2-114], the IC50 was 3.1 nM.

`CCOC(=O)C(CC)(COC(=O)Cc1ccc(NC(=O)c2ccccc2-c2ccc(C(F)(F)F)cc2)c(C(=O)N(C)C)c1)C(=O)OCC` [Example 2-115]: the IC50 came out at 44 nM.

As for `C=CCC(COC(=O)Cc1ccc(NC(=O)c2ccccc2-c2ccc(C(F)(F)F)cc2)c(C(=O)N(C)C)c1)(C(=O)OCC)C(=O)OCC` [Example 2-117], the IC50 came out at 38 nM.

Regarding `CCOC(=O)C(COC(=O)Cc1ccc(NC(=O)c2ccccc2-c2ccc(C(F)(F)F)cc2)c(C(=O)N(C)C)c1)(C(=O)OCC)C(=O)OCC` [Example 2-118], the IC50 came to 49 nM.

Turning to `CCOC(=O)C(COC(=O)Cc1ccc(NC(=O)c2ccccc2-c2ccc(C(F)(F)F)cc2)c(OCC)c1)(C(=O)OCC)c1ccccc1` [Example 3, 2-(2-{3-Ethoxy-4-[(4′-trifluoromethylbiphenyl-2-carbonyl)amino]phenyl}acetoxymethyl)-2-phenylmalonic acid diethyl ester], the IC50 was 1.9 nM.

Turning to `CCNC(=O)C(COC(=O)Cc1ccc(NC(=O)c2ccccc2-c2ccc(C(F)(F)F)cc2)c(O)c1)(C(=O)NCC)c1ccccc1` [Example 3-2, {3-Hydroxy-4-[(4′-trifluoromethylbiphenyl-2-carbonyl)amino]phenyl}acetic acid 2,2-bisethylcarbamoyl-2-phenylethyl ester], the IC50 came out at 4.2 nM.

As for `CCOC(=O)C(COC(=O)Cc1ccc(NC(=O)c2ccccc2-c2ccc(C(F)(F)F)cc2)c(OC(C)C)c1)(C(=O)OCC)c1ccccc1` [Example 3-9], the IC50 was found to be 1.6 nM.

With `CCCOc1cc(CC(=O)OCC(C(=O)NCC)(C(=O)NCC)c2ccccc2)ccc1NC(=O)c1ccccc1-c1ccc(C(F)(F)F)cc1` [Example 3-12], the IC50 came out at 0.72 nM.

Take `CCNC(=O)C(COC(=O)Cc1ccc(NC(=O)c2ccccc2-c2ccc(C(F)(F)F)cc2)c(OCc2ccccc2)c1)(C(=O)NCC)c1ccccc1` [Example 3-13]: the IC50 amounted to 1.9 nM.

As to `CCOC(=O)C(COC(=O)Cc1ccc(NC(=O)c2ccccc2-c2ccc(C(F)(F)F)cc2)c(O)c1)(C(=O)OCC)c1ccccc1` [Example 3-15], the IC50 is 49.9 nM.

For the molecule `CCNC(=O)C(COC(=O)Cc1ccc(NC(=O)c2ccccc2-c2ccc(C(F)(F)F)cc2)c(N(C)C)c1)(C(=O)NCC)c1ccccc1` [Example 4, 2-{3-Dimethylamino-4-[(4′-trifluoromethylbiphenyl-2-carbonyl)amino]phenyl}acetic acid 2,2-bisethylcarbamoyl-2-phenylethyl ester], the IC50 worked out at 0.33 nM.

On to `CCNC(=O)C(COC(=O)Cc1ccc(NC(=O)c2ccccc2-c2ccc(C(F)(F)F)cc2)c(N2CCCCC2)c1)(C(=O)NCC)c1ccccc1` [Example 4-2], for which the IC50 came to 16 nM.

As for `CCNC(=O)C(COC(=O)Cc1ccc(NC(=O)c2ccccc2-c2ccc(C(F)(F)F)cc2)c(N2CCCC2)c1)(C(=O)NCC)c1ccccc1` [Example 4-3], the IC50 is 7.9 nM.

For the molecule `CCOC(=O)C(COC(=O)Cc1ccc(NC(=O)c2ccccc2-c2ccc(C(F)(F)F)cc2)c(N2CCCC2)c1)(C(=O)OCC)c1ccccc1` [Example 4-5], the IC50 is 5.2 nM.

Turning to `CCOC(=O)C(COC(=O)Cc1ccc(NC(=O)c2ccccc2-c2ccc(C(F)(F)F)cc2)c(N(C)C)c1)(C(=O)OCC)c1ccccc1` [Example 4-6], the IC50 turned out to be 7.5 nM.

Take `CCOC(=O)C(COC(=O)Cc1ccc(NC(=O)c2ccccc2-c2ccc(C(F)(F)F)cc2)c(N2CCOCC2)c1)(C(=O)OCC)c1ccccc1` [Example 4-7]: the IC50 amounted to 15 nM.

In the case of `CCOC(=O)C(COC(=O)Cc1ccc(NC(=O)c2ccccc2-c2ccc(C(F)(F)F)cc2)c(N(CC)CC)c1)(C(=O)OCC)c1ccccc1` [Example 4-8], the IC50 amounted to 10 nM.

`CCNC(=O)C(CCOC(=O)Cc1cccc(NC(=O)c2ccccc2-c2ccc(C(F)(F)F)cc2)c1OC)(C(=O)NCC)c1ccccc1` [Example 5-12]: the IC50 came to 1.3 nM.

Take `CCOC(=O)C(CCOC(=O)Cc1cccc(NC(=O)c2ccccc2-c2ccc(C(F)(F)F)cc2)c1OC)(C(=O)OCC)c1ccccc1` [Example 5-13]: the IC50 came to 2.4 nM.

Consider `CCNC(=O)C(CCOC(=O)Cc1cccc(NC(=O)c2ccccc2-c2ccc(C(F)(F)F)cc2)c1OCC)(C(=O)NCC)c1ccccc1` [Example 5-14], for which the IC50 is 0.34 nM.

As to `CCOC(=O)C(CCOC(=O)Cc1cccc(NC(=O)c2ccccc2-c2ccc(C(F)(F)F)cc2)c1OCC)(C(=O)OCC)c1ccccc1` [Example 5-15], the IC50 was 6.4 nM.

As to `CCOC(=O)C(CCOC(=O)Cc1cccc(NC(=O)c2ccccc2-c2ccc(C(F)(F)F)cc2)c1OC(C)C)(C(=O)OCC)c1ccccc1` [Example 5-16], the IC50 came out at 3 nM.

Turning to `CCOC(=O)C(CCOC(=O)Cc1cccc(NC(=O)c2ccccc2-c2ccc(C(F)(F)F)cc2)c1C(=O)OC)(C(=O)OCC)c1ccccc1` [Example 5-17], the IC50 was 5.2 nM.

In the case of `CCNC(=O)C(COC(=O)Cc1ccc2c(c1)oc(=O)n2C(=O)c1ccccc1-c1ccc(C(F)(F)F)cc1)(C(=O)NCC)c1ccccc1` [Example 9-3, [2-Oxo-3-(4′-trifluoromethylbiphenyl-2-carbonyl)-2,3-dihydrobenzoxazol-6-yl]acetic acid 2,2-bisethylcarbamoyl-2-phenylethyl ester], the IC50 stood at 59 nM.

Turning to `CCOC(=O)c1cc(CC(=O)OCC(C(=O)OCC)(C(=O)OCC)c2ccccc2)ccc1NC(=O)c1ccccc1-c1ccc(C(F)(F)F)cc1` [Example 9-4, 2-(2-{3-Ethoxycarbonyl-4-[(4′-trifluoromethylbiphenyl-2-carbonyl)amino]phenyl}acetoxymethyl)-2-phenylmalonic acid diethyl ester], the half-inhibitory concentration (IC50) was determined as 9.9 nM.

Regarding `CCOC(=O)C(COC(=O)CCc1ccc(NC(=O)c2ccccc2-c2ccc(C(F)(F)F)cc2)c(C(=O)N(C)C)c1)(C(=O)OCC)c1ccccc1` [Example 9-5, 2-(3-{3-Dimethylcarbamoyl-4-[(4′-trifluoromethylbiphenyl-2-carbonyl)-amino]-phenyl}-propionyloxymethyl)-2-phenyl-malonic acid diethyl ester], the IC50 is 3.1 nM.

Take `CCNC(=O)C(COC(=O)c1ccc(CNC(=O)c2ccccc2-c2ccc(C(F)(F)F)cc2)cc1)(C(=O)NCC)c1ccccc1` [Example 9-6]: the concentration for half-maximal inhibition (IC50) amounted to 59 nM.

As to `CCNC(=O)C(COC(=O)Cc1ccc(NC(=O)c2ccccc2-c2ccc(C(F)(F)F)cc2)c(C(=O)OCc2ccccc2)c1)(C(=O)NCC)c1ccccc1` [Example 9-8], the IC50 was found to be 6.9 nM.

Turning to `CCOC(=O)C(COC(=O)Cc1ccc(NC(=O)c2ccccc2-c2ccc(C(F)(F)F)cc2)c(C(=O)OCc2ccccc2)c1)(C(=O)OCC)c1ccccc1` [Example 9-14], the IC50 was 41 nM.

As to `CCOC(=O)C(COC(=O)Cc1ccc2c(c1)C(=O)N2C(=O)c1ccccc1-c1ccc(C(F)(F)F)cc1)(C(=O)OCC)c1ccccc1` [Example 9-17], the IC50 was determined as 23 nM.

As for `CCOC(=O)C(COC(=O)Cc1ccc(NC(=O)c2ccccc2-c2ccc(C(F)(F)F)cc2)c(NC(C)=O)c1)(C(=O)OCC)c1ccccc1` [Example 9-21], the 50% inhibitory concentration (IC50) came to 20 nM.
